{"source": "patent US20240254547A1", "about": "“HIGHLY ACCURATE […]” (KAO CORPORATION, priority 2018, published 2024)", "system": "Genomic DNA from TA100 strain of Salmonella typhimurium (S. typhimurium) LT-2", "assay": "Genomic mutation analysis of mutagen-exposed TA100 strain by sequencing with consensus read sequences considering complementary strands", "format": "cell-based", "conditions": "ENU group", "protocol": "Exposure of cells to ENU was performed in accordance with the pre-incubation method of the Ames test (K. Mortelmans et al. Mutat. Res.—Fundam. Mol. Mech. Mutagen. 455:29-60, 2000). TA100 strain was seeded in 2 mL of Nutrient Broth No. 2 (produced by Oxoid Limited), and subjected to shaking culture at 37° C. and 180 rpm for 4 hours to afford pre-culture solution with an O.D.660 value of 1.0 or higher. ENU (produced by Sigma-Aldrich Co. LLC.) was diluted with dimethylsulfoxide (DMSO; produced by Wako Pure Chemical Industries, Ltd.). Into test tubes, 100 μL of the ENU solution, 500 μL of 0.1 M phosphate buffer, and 100 μL of the pre-culture solution were added (amount of ENU: 62.5, 125, 250, 500, and 1,000 μg/tube), and the resultants were subjected to shaking culture at 100 rpm in a water bath at 37° C. for 20 minutes (ENU group). For a control group, 100 μL of solvent (DMSO) was added instead of the ENU solution. After shaking culture for 20 minutes, the test tubes each containing a culture solution were taken out of the water bath, and 50 μL of each culture solution was added to 2 mL of Nutrient Broth solution aliquoted in advance, and the resultant was further cultured in an incubator at 37° C. and 180 rpm for 14 hours, from which the bacterial suspensions were then collected and centrifuged at 7,500 rpm for 5 minutes, and the supernatants were removed to collect the bacterial cells.\nFrom the bacterial cells obtained in 1) (control group and ENU group), total DNA was collected by using a DNeasy Blood & Tissue Kit (produced by QIAGEN) in accordance with the recommended protocol. The double-stranded DNA concentration of each DNA sample obtained was measured by using a Qubit3.0 Fluorometer (produced by Thermo Fisher Scientific) with a Qubit™ dsDNA BR Assay Kit attached thereto.\nFrom each DNA sample (control group and ENU group) after being subjected to concentration measurement in 2), a plurality of samples each of which was to give 100 ng of DNA were prepared, and each sample was fragmented into pieces having a length of approximately 350 bp on average by using a DNA Shearing System ME220 (produced by Covaris Inc.) in accordance with the recommended protocol. The fragmented DNA obtained was subjected to library preparation by using a TruSeq Nano DNA Library Prep Kit (produced by Illumina, Inc., hereinafter abbreviated as TruSeq) in accordance with the recommended protocol.\nIn library preparation, the DNA fragments obtained were each labeled with adapter sequences each including a label sequence at a terminal, as described in Example 1. The resultant was subjected to PCR under different conditions listed in Table 1 to prepare libraries for sequencing, thus preparing labeled libraries for sequencing with different conditions. Adapter sequences attached to the TruSeq from Illumina, Inc. were used. […] Thus, one of two adapters was bound to each fragment in each library. […] Each of the resulting ligation reaction solutions was purified in accordance with the recommended protocol, and then subjected to concentration measurement for ligation products by using a High Sensitivity D5000 Kit in an Agilent 4200 TapeStation (produced by Agilent Technologies). […] The mixed solution obtained was subjected to purification through PCR in accordance with the recommended protocol. To adjust difference in amount of input DNA in PCR, each sample was amplified through PCR cycles the number of which is shown in Table 1 to adjust the amount of DNA in the library.\nEach of the libraries prepared in 3) was subjected to sequencing by using a HiSeq 2500 (produced by Illumina, Inc.), where the read length was set to 2*125 bp for Library Nos. 1 to 8 shown in Table 1, and to 2*100 bp for Library Nos. 9 to 14. Sequencing data of approximately 10 Gbp were acquired on average per library.\nRaw read sequences acquired through sequencing were edited and subjected to mutation analysis in accordance with the analysis flow illustrated above in Schematic Diagram 4. […]", "data": [{"smiles": "CCN(N=O)C(N)=O", "note": "[ENU, ethylnitrosourea]", "values": [{"measurement": "GC to AT mutation frequency", "setting": "10 Gbp sequencing data, Library No. 1, PCR input DNA 20000 amol", "result": "10.48 /10^5 bp"}, {"measurement": "GC to AT mutation frequency", "setting": "10 Gbp sequencing data, Library No. 4, PCR input DNA 2500 amol", "result": "37.70 /10^5 bp"}, {"measurement": "GC to AT mutation frequency", "setting": "10 Gbp sequencing data, Library No. 5, PCR input DNA 1250 amol", "result": "46.50 /10^5 bp"}, {"measurement": "GC to AT mutation frequency", "setting": "10 Gbp sequencing data, Library No. 6, PCR input DNA 625 amol", "result": "55.30 /10^5 bp"}, {"measurement": "GC to AT mutation frequency", "setting": "10 Gbp sequencing data, Library No. 7, PCR input DNA 313 amol", "result": "56.57 /10^5 bp"}, {"measurement": "GC to AT mutation frequency", "setting": "10 Gbp sequencing data, Library No. 8, PCR input DNA 156 amol", "result": "60.42 /10^5 bp"}, {"measurement": "GC to AT mutation frequency", "setting": "10 Gbp sequencing data, Library No. 9, PCR input DNA 156 amol", "result": "61.01 /10^5 bp"}, {"measurement": "GC to AT mutation frequency", "setting": "10 Gbp sequencing data, Library No. 10, PCR input DNA 78 amol", "result": "63.62 /10^5 bp"}, {"measurement": "GC to AT mutation frequency", "setting": "10 Gbp sequencing data, Library No. 11, PCR input DNA 39 amol", "result": "63.38 /10^5 bp"}, {"measurement": "GC to AT mutation frequency", "setting": "10 Gbp sequencing data, Library No. 12, PCR input DNA 20 amol", "result": "63.89 /10^5 bp"}, {"measurement": "GC to AT mutation frequency", "setting": "10 Gbp sequencing data, Library No. 13, PCR input DNA 10 amol", "result": "63.35 /10^5 bp"}, {"measurement": "GC to AT mutation frequency", "setting": "10 Gbp sequencing data, Library No. 14, PCR input DNA 5 amol", "result": "60.05 /10^5 bp"}, {"measurement": "Frequency of GC→AT mutation compared with the other mutation patterns", "setting": "10 Gbp sequencing data, each library", "result": "highest"}, {"measurement": "Relative mutation frequency to 20 amol (GC to AT)", "setting": "Library No. 1, PCR input DNA 20000 amol", "result": 16.41}, {"measurement": "Relative mutation frequency to 20 amol (GC to AT)", "setting": "Library No. 4, PCR input DNA 2500 amol", "result": 59.01}, {"measurement": "Relative mutation frequency to 20 amol (GC to AT)", "setting": "Library No. 5, PCR input DNA 1250 amol", "result": 72.79}, {"measurement": "Relative mutation frequency to 20 amol (GC to AT)", "setting": "Library No. 6, PCR input DNA 625 amol", "result": 86.56}, {"measurement": "Relative mutation frequency to 20 amol (GC to AT)", "setting": "Library No. 7, PCR input DNA 313 amol", "result": 88.55}, {"measurement": "Relative mutation frequency to 20 amol (GC to AT)", "setting": "Library No. 8, PCR input DNA 156 amol", "result": 94.57}, {"measurement": "Relative mutation frequency to 20 amol (GC to AT)", "setting": "Library No. 9, PCR input DNA 156 amol", "result": 95.50}, {"measurement": "Relative mutation frequency to 20 amol (GC to AT)", "setting": "Library No. 10, PCR input DNA 78 amol", "result": 99.59}, {"measurement": "Relative mutation frequency to 20 amol (GC to AT)", "setting": "Library No. 11, PCR input DNA 39 amol", "result": 99.20}, {"measurement": "Relative mutation frequency to 20 amol (GC to AT)", "setting": "Library No. 12, PCR input DNA 20 amol (reference)", "result": 100.00}, {"measurement": "Relative mutation frequency to 20 amol (GC to AT)", "setting": "Library No. 13, PCR input DNA 10 amol", "result": 99.16}, {"measurement": "Relative mutation frequency to 20 amol (GC to AT)", "setting": "Library No. 14, PCR input DNA 5 amol", "result": 94.00}]}]}
